Values quoted from earlier work as cited in article PMC11776332 (Virology Journal, 2025).

Test system: HIV-1

IC50 compared with CV-10240: lower IC50 than CV-10240
SMILES: C=C(C)[C@@H]1CC[C@]2(NCCN3CCS(=O)(=O)CC3)CC[C@]3(C)[C@H](CC[C@@H]4[C@@]5(C)CC=C(C6=CC[C@@](CF)(C(=O)O)CC6)C(C)(C)[C@@H]5CC[C@]43C)[C@@H]12 [GSK3640254]
